{
  "source": "patent US6573261B2",
  "about": "“Method for treating or preventing psychosomatic and psychoimmunologic disorders” (Merck & Co., Inc., priority 1997, dated 2003)",
  "key": {"[1]": {"tested_on": "foot tapping in gerbils induced by central injection of an NK1 agonist", "test": "Gerbil foot-tapping assay", "type": "in vivo, Mongolian gerbils", "details": "i.v."}, "[2]": {"tested_on": "distress vocalisations in guinea-pig pups", "test": "Separation-induced vocalisation assay", "type": "in vivo, guinea-pigs", "details": "p.o.", "description": "On test days each pup receives an oral dose or a s.c. or i.p. injection of test compound or vehicle and is then immediately returned to the home cage with its mother and siblings for 30 minutes to 60 minutes (or for up to 4 hours following an oral dose, dependant upon the oral pharmacokinetics of the test compound) before social isolation for 15 minutes as described above. […] Between 6 and 8 animals receive each test compound at each dose tested."}},
  "data": [
    {"smiles": "C[C@@H](O[C@H]1OCCN(Cc2n[nH]c(=O)[nH]2)[C@H]1c1ccc(F)cc1)c1cc(C(F)(F)F)cc(C(F)(F)F)c1", "note": "[2-(R)-(1-(R)-(3,5-bis(trifiuoromethyl)phenyl)-ethoxy)-3-(S)-(4-fluorophenyl)-4-(3-(5-oxo-1H,4H-1,2,4-triazolo)methyl)-morpholine]", "values": [
      {"measurement": "gerbil foot-tapping (5 mins.): ID50", "setting": "[1]; 5 mins.", "value": "ID50 = 0.36 mg/kg i.v."},
      {"measurement": "gerbil foot-tapping (24 hrs.): ID50", "setting": "[1]; 24 hrs. prior to challenge", "value": "ID50 = 0.33 mg/kg i.v."},
      {"measurement": "guinea-pig vocalisation (4 hr. pre-treatment): ID50", "setting": "[2]", "value": "ID50 = 0.73 mg/kg p.o."}
    ]}
  ]
}
